From BindingDB's records for doi:10.1021/cc1000488 (German University In Cairo, 2010) come the findings set out here.

This assay addresses Mitogen-activated protein kinase 14 (Homo sapiens, UniProt Q16539). Nature of the assay: P38 MAP Kinase Assay. Particulars: pH 7.5; 37 °C. From the text:
Kinase assay using p38alpha MAP.

Mitogen-activated protein kinase 14, sequence (Q16539 whole entry): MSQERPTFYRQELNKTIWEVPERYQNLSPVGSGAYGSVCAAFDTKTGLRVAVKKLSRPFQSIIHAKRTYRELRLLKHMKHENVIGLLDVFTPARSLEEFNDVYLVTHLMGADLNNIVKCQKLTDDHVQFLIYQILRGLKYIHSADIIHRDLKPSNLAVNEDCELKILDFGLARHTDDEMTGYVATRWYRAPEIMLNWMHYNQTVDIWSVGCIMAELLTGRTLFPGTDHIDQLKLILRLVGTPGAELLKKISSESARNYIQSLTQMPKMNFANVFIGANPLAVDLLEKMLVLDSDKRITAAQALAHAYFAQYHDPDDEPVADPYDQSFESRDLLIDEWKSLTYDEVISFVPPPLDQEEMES

`N#Cc1c(-c2ccc(Br)cc2)cc(-c2ccc(Br)cc2)nc1N` [MAP Kinase Inhibitor, 7] gave an IC50 of 760 nM.

In the case of `N#Cc1c(-c2ccc(Br)cc2)cc(-c2ccc(Br)cc2)[nH]c1=O` [MAP Kinase Inhibitor, 14], it took 4400 nM to reach half-maximal inhibition (IC50).

On to `N#Cc1c(-c2c[nH]c3ccccc23)cc(-c2ccc(Br)cc2)nc1N` [MAP Kinase Inhibitor, 6], for which half-maximal inhibition (IC50) required 2650 nM. This IC50 lies about 1.7-fold lower than the previous one. Then `Cc1ccc(-c2cc(-c3ccc(Br)cc3)nc(N)c2C#N)o1` [MAP Kinase Inhibitor, 2], with 70 nM; and `COc1cc(-c2cc(-c3ccc(Br)cc3)[nH]c(=O)c2C#N)cc(OC)c1OC` [MAP Kinase Inhibitor, 8], with 1220 nM.

Take `N#Cc1c(-c2cccnc2)cc(-c2ccc(Br)cc2)nc1N` [MAP Kinase Inhibitor, 3]: it took 3700 nM to reach half-maximal inhibition (IC50). In turn, `N#Cc1c(-c2ccc(Cl)c(Cl)c2)cc(-c2ccc(Br)cc2)[nH]c1=O` [MAP Kinase Inhibitor, 11] registered an IC50 of 120 nM. This IC50 is about 31-fold lower than that of the compound before. Under `COc1cc(-c2cc(-c3ccc(Br)cc3)nc(N)c2C#N)cc(OC)c1OC` [MAP Kinase Inhibitor, 1] stands 2000 nM.

In turn, `N#Cc1c(-c2ccc(Cl)c(Cl)c2)cc(-c2ccc(Br)cc2)nc1N` [MAP Kinase Inhibitor, 4] came in with an IC50 of 3680 nM.

One may read the IC50 as the midpoint of a concentration-inhibition curve. High values mean a need for much substance, low ones inhibition by little substance.
